The text below walks through data of ChEMBL document CHEMBL3526017, “Predicting the drug interaction potential of AMG 853, a dual antagonist of the D-prostanoid and chemoattractant receptor-homologous molecule expressed on T helper 2 cells receptors” (Drug Metab Dispos, 2012).

One data set has as its target Cytochrome P450 2C9 (Homo sapiens, UniProt P11712). Briefly: Inhibition of CYP2C9 in human liver microsomes using diclofenac as substrate after 5 to 30 mins by LC-MS/MS analysis. Format: ADME.
The target of data set [1] is T1, Cytochrome P450 2C19 (Homo sapiens, UniProt P33261). As to the kind of experiment: Inhibition of CYP2C19 in human liver microsomes using (S)-Mephenytoin as substrate after 5 to 30 mins by LC-MS/MS analysis. Format: ADME.
T1 sequence (P33261 whole entry): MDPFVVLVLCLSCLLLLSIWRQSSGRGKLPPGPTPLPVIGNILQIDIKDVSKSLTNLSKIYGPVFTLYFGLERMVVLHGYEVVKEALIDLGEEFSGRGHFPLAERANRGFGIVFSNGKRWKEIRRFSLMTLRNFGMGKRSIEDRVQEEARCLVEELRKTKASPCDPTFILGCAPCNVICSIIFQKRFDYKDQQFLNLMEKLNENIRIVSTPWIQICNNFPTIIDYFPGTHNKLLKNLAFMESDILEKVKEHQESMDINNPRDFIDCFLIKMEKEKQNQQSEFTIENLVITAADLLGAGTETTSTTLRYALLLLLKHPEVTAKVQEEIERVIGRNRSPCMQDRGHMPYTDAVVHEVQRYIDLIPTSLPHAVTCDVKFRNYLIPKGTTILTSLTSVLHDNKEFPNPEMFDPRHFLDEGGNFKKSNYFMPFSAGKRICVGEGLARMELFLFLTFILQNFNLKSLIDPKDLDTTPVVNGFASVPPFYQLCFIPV
The next data set concerns the target Cytochrome P450 2D6 (Homo sapiens, UniProt P10635). As to the kind of experiment: Inhibition of CYP2D6 in human liver microsomes using dextromethorphan as substrate after 5 to 30 mins by LC-MS/MS analysis. Format: ADME.
The next data set concerns the target Cytochrome P450 2E1 (Homo sapiens, UniProt P05181). As to the kind of experiment: Inhibition of CYP2E1 in human liver microsomes using chlorzoxazone as substrate after 5 to 30 mins by LC-MS/MS analysis. Format: ADME.
The target of data set [2] is T2, Cytochrome P450 3A4 (Homo sapiens, UniProt P08684). Briefly: Inhibition of CYP3A4 in human liver microsomes using midazolam as substrate after 5 to 30 mins by LC-MS/MS analysis. Format: ADME.
T2 sequence (P08684 whole entry): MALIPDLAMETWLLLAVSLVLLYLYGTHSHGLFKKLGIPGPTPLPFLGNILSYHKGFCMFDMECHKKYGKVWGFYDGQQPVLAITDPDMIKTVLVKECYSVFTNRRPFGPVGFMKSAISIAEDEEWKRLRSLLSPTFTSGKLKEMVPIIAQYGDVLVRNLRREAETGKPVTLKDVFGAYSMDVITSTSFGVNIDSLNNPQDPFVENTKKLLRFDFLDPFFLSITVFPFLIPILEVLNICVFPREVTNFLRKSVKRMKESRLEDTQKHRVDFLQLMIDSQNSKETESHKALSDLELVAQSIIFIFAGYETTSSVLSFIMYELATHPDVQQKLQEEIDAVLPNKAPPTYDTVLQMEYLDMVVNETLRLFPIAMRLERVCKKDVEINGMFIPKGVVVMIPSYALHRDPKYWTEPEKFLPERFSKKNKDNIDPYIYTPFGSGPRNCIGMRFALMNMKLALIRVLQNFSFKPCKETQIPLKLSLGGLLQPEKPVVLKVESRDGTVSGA
The target in data set [3] is T2, Cytochrome P450 3A4. As to the kind of experiment: Inhibition of CYP3A4 in human liver microsomes using testosterone as substrate after 5 to 30 mins by LC-MS/MS analysis. Format: ADME.
In data set [4] the target is T3, Cytochrome P450 2C8 (Homo sapiens, UniProt P10632).
T3 sequence (P10632 whole entry): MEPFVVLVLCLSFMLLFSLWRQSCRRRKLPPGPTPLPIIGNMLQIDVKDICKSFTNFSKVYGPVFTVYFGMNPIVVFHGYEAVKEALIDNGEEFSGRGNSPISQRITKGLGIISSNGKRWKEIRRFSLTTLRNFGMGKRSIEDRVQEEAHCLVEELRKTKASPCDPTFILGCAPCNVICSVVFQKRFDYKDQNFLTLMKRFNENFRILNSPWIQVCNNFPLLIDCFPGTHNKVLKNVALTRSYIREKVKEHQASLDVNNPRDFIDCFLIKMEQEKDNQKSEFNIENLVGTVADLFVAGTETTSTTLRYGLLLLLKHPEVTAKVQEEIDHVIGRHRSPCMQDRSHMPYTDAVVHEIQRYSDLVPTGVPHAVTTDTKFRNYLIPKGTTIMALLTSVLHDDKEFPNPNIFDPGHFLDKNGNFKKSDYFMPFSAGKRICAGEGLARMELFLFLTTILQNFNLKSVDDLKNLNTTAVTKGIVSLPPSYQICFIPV
As to the kind of experiment: Biphasic inhibition of CYP2C8 in human liver microsomes assessed as montelukast 36-hydroxylation after 20 mins by LC-MS/MS analysis. Format: ADME.

In a further data set the target is T4, Cytochrome P450 1A2 (Homo sapiens, UniProt P05177).
T4 sequence (P05177 whole entry): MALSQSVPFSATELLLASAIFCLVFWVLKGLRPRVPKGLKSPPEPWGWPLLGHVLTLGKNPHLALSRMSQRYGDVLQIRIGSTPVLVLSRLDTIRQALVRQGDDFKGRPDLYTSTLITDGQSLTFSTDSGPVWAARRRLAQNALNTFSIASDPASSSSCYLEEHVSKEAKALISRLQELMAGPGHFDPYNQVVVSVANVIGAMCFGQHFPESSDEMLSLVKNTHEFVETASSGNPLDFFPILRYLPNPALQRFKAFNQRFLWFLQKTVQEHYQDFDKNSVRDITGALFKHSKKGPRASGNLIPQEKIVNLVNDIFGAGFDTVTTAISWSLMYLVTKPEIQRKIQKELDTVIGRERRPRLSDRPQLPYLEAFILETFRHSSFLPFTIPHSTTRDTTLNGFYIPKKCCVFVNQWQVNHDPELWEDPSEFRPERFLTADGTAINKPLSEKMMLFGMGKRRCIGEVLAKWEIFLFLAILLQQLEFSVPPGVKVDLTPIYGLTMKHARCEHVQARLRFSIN
As to the kind of experiment: Inhibition of CYP1A2 in human liver microsomes using phenacetin as substrate after 5 to 30 mins by LC-MS/MS analysis. Format: ADME.

Another data set deals with T5, Cytochrome P450 2B6 (Homo sapiens, UniProt P20813).
T5 sequence (P20813 whole entry): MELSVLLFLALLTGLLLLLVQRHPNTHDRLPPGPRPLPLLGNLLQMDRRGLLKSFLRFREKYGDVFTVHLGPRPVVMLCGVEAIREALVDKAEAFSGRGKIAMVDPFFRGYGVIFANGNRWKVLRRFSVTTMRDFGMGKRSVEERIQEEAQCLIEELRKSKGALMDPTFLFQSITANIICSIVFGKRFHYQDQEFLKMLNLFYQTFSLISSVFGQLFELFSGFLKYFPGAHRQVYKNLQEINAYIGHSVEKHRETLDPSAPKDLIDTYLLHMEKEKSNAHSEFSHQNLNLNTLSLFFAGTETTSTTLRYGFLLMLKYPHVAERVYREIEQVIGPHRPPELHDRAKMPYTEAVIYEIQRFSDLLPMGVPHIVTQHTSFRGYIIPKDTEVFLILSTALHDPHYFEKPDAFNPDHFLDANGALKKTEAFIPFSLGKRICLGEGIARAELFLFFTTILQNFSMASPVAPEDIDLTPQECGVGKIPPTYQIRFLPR
Briefly: Inhibition of CYP2B6 in human liver microsomes using bupropion as substrate after 5 to 30 mins by LC-MS/MS analysis. Format: ADME.

For data set [5], the target named is UDP-glucuronosyltransferase 1A9 (Homo sapiens, UniProt O60656). Briefly: Drug metabolism assessed as human recombinant UGT1A9-mediated (2S,3S,4S,5R,6S)-6-(2-(4-(4-(tert-butylcarbamoyl)-2-(2-chloro-4-cyclopropylphenylsulfonamido)phenoxy)-5-chloro-2-fluorophenyl)acetoxy)-3,4,5-trihydroxytetrahydro-2H-pyran-2-carboxylic acid formation at 10 uM after 30 mins by LC-MS/MS analysis. Format: ADME. The following applies: recombinant enzyme, 0.5 h.
Sequence of UDP-glucuronosyltransferase 1A9 (O60656 whole entry): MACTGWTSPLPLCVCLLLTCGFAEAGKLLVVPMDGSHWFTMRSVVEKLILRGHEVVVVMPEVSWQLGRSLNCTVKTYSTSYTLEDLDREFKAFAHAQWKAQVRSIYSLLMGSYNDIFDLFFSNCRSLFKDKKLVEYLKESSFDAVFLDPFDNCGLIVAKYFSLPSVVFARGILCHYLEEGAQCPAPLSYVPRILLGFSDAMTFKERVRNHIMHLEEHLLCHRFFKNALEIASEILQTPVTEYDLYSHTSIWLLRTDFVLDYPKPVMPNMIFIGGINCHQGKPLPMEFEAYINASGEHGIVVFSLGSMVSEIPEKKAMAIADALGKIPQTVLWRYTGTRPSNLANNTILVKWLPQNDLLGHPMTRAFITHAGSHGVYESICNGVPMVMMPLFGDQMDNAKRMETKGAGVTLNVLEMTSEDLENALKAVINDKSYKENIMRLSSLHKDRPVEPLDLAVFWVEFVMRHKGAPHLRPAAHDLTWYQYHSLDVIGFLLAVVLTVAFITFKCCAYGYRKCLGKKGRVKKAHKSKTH

The target of a further data set is CYP3A4 (Homo sapiens, UniProt P08684). As to the kind of experiment: Induction of CYP3A4 in human hepatocytes using midazolam as substrate at 0.3 to 30 uM treated every 24 hrs for 2 days measured on day 5 by LC-MS/MS analysis relative to control.
Sequence of CYP3A4 (P08684 whole entry): as the sequence (P08684 whole entry) above
A further data set relates to CYP1A2. As to the kind of experiment: Upregulation of CYP1A2 mRNA expression in human hepatocytes at 0.3 to 30 uM treated every 24 hrs for 2 days measured on day 5 relative to control. Format: ADME, cell-based, Hepatocyte. The conditions noted are these: read-out: FC.
Data set [6] can be described thus: Drug metabolism in human liver microsomes assessed as CYP3A5*1/*1-mediated (2S,3S,4S,5R,6S)-6-(2-(4-(4-(tert-butylcarbamoyl)-2-(2-chloro-4-cyclopropylphenylsulfonamido)phenoxy)-5-chloro-2-fluorophenyl)acetoxy)-3,4,5-trihydroxytetrahydro-2H-pyran-2-carboxylic acid formation after 15 mins by LC-MS/MS analysis in presence of UDPGA and NADPH. Format: ADME. The following applies: 0.25 h.

Data set [7] has as its target T3, Cytochrome P450 2C8. As to the kind of experiment: Drug metabolism assessed as recombinant CYP2C8 (unknown origin)-mediated 2-(4-(4-(tert-butylcarbamoyl)-2-(2-chloro-4-(1-hydroxycyclopropyl)phenylsulfonamido)phenoxy)-5-chloro-2-fluorophenyl)acetic acid formation at 10 uM after 30 mins by LC-MS/MS analysis. Format: ADME. The following applies: recombinant enzyme, 0.5 h.

Data set [8] has as its target T1, Cytochrome P450 2C19. As to the kind of experiment: Drug metabolism assessed as recombinant CYP2C19 (unknown origin)-mediated 2-(4-(4-(tert-butylcarbamoyl)-2-(2-chloro-4-(1-hydroxycyclopropyl)phenylsulfonamido)phenoxy)-5-chloro-2-fluorophenyl)acetic acid formation at 10 uM after 30 mins by LC-MS/MS analysis. Format: ADME. The conditions noted are these: recombinant enzyme, 0.5 h.

The structures appear in SMILES notation.

Sequence of Cytochrome P450 2C9 (P11712 whole entry): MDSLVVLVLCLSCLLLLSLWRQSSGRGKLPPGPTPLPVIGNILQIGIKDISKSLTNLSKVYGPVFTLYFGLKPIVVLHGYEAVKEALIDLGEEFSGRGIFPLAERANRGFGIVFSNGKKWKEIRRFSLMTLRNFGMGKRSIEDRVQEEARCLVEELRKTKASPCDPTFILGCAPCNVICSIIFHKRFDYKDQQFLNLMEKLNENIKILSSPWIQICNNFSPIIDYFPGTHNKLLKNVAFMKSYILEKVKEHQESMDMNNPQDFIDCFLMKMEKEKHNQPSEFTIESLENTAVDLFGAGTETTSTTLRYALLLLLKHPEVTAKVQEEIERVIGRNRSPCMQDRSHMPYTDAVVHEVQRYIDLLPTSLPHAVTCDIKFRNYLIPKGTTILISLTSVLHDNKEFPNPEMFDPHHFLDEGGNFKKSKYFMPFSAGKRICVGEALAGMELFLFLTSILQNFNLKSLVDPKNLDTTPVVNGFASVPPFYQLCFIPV
Sequence of Cytochrome P450 2E1 (P05181 whole entry): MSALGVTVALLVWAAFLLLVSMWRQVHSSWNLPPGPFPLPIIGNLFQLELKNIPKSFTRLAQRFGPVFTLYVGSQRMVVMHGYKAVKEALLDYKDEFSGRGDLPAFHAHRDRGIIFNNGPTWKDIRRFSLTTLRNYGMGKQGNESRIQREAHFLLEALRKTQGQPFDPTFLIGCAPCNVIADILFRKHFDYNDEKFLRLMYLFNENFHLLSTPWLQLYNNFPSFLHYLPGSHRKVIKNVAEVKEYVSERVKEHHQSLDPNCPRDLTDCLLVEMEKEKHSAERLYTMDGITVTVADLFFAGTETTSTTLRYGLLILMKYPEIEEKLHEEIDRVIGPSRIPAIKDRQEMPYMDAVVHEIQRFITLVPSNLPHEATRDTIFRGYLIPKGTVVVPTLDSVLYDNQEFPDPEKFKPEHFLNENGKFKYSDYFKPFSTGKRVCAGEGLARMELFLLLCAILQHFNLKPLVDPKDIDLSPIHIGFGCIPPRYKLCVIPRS
Sequence of Cytochrome P450 2D6 (P10635 whole entry): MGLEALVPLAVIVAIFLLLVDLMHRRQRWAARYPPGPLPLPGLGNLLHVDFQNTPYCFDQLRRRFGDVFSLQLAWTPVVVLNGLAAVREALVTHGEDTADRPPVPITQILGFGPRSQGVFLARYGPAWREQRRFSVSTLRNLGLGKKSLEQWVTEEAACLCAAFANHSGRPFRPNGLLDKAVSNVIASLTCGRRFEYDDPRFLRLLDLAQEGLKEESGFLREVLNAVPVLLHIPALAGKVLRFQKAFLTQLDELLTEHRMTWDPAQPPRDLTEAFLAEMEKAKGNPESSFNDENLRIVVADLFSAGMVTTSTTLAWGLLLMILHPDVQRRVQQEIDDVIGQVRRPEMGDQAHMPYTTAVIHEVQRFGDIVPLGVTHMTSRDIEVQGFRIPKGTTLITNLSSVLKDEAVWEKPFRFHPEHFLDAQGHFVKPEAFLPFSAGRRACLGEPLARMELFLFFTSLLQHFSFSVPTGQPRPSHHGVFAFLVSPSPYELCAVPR

Regarding `CC(C)(C)NC(=O)c1ccc(Oc2cc(F)c(CC(=O)O[C@@H]3O[C@H](C(=O)O)[C@@H](O)[C@H](O)[C@H]3O)cc2Cl)c(NS(=O)(=O)c2ccc(C3CC3)cc2Cl)c1`, the Ki at Cytochrome P450 2C9, at Cytochrome P450 2C19 [1], on Cytochrome P450 2D6, on Cytochrome P450 2E1, on Cytochrome P450 3A4 [2] and on Cytochrome P450 3A4 [3] was over 30 µM throughout. For the same compound, the Ki at Cytochrome P450 2C8 [4] is 7.3 µM; on Cytochrome P450 1A2, over 30 µM; at Cytochrome P450 2B6, over 30 µM.
On to `CC(C)(C)NC(=O)c1ccc(Oc2cc(F)c(CC(=O)O)cc2Cl)c(NS(=O)(=O)c2ccc(C3CC3)cc2Cl)c1` [VIDUPIPRANT], for which the Drug metabolism entry in data set [5] is on record as “metabolite_not_detected”; in data set [6] it was “metabolite_not_detected”; on Cytochrome P450 2C8 [7], “metabolite_detected”; at Cytochrome P450 2C19 [8], “metabolite_detected”. For the same compound, the IC50 against Cytochrome P450 2C9, against Cytochrome P450 2C19 [1], at Cytochrome P450 2D6, on Cytochrome P450 2E1, at Cytochrome P450 3A4 [2] and against Cytochrome P450 3A4 [3] was at least 30 µM in each case. Also, the IC50 on Cytochrome P450 1A2 and at Cytochrome P450 2B6 was at least 30 µM throughout. Further, the Ki at Cytochrome P450 2C9, at Cytochrome P450 2C19 [1], at Cytochrome P450 2D6, on Cytochrome P450 2E1, on Cytochrome P450 3A4 [2] and on Cytochrome P450 3A4 [3] was over 30 µM each time. Besides, the Ki was 1.8 µM at Cytochrome P450 2C8 [4], over 30 µM at Cytochrome P450 1A2 and over 30 µM at Cytochrome P450 2B6. This compound displayed a fold induction at 48 h, 30 µM at CYP3A4 of 1.4. For the same compound, the fold induction at 48 h, up to 30 µM with CYP1A2 was 1.7.
